Holding throughout (type): cell-based
In assay [1] the target is mouse GPR17 (mGPR17) (Mus musculus, UniProt Q6NS65). The assay can be described thus: calcium flux in GLUTag cells expressing mGPR17.
Assay [2] has as its target human GPR17 long isoform V96M (hGPR17L-V96M) (Homo sapiens, UniProt Q13304, V96M). Description: calcium flux in GLUTag cells expressing hGPR17L-V96M.
Assay [3] addresses human GPR17 long isoform (hGPR17L) (Homo sapiens, UniProt Q13304).

Sequence of human GPR17 long isoform V96M (hGPR17L-V96M) (Q13304 whole entry V96M, canonical isoform): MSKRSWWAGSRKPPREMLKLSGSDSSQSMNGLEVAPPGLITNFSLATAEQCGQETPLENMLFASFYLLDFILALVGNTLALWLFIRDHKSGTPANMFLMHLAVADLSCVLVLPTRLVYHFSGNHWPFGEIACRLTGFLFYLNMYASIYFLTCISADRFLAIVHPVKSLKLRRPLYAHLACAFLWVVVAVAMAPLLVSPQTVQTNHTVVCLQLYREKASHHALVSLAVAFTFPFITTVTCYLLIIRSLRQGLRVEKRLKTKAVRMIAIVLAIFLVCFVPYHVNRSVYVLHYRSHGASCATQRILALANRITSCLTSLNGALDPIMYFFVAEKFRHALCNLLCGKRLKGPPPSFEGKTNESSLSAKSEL
Sequence of mouse GPR17 (mGPR17) (Q6NS65 whole entry, canonical isoform): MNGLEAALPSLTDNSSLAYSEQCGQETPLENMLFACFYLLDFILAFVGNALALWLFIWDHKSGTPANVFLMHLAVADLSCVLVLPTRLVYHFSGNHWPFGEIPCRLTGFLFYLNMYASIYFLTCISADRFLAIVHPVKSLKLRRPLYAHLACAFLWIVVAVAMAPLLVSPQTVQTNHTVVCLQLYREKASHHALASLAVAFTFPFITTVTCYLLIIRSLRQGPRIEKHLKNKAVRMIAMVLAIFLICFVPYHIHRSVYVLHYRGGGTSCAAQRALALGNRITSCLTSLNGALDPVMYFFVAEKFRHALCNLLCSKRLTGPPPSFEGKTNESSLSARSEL
Sequence of human GPR17 long isoform (hGPR17L) (Q13304 whole entry, canonical isoform): as the sequence (Q13304 whole entry V96M, canonical isoform) above, with M96V counted along it

For the compound `O=C(O)CCc1c(C(=O)O)[nH]c2cc(Cl)cc(Cl)c12` [MDL29,951], the 50% effective concentration (EC50) in assay [1] turned out to be 680 nM; in assay [2], 580 nM. For the same compound, the IC50 in assay [3] came out at 29 nM.

For the origin of these results see article PMC11601441 (bioRxiv, 2024).
